In patent US10112918B2, “15-oxospiramilactone derivatives, preparation method and uses thereof” (Kunming Institute of Botany, The Chinese Academy of Sciences, priority 2013, dated 2018):
Like-named read-outs stand apart in the source and are kept apart here.

How the values were obtained:
Assay type in all cases: cell-based
[1] = tested on: Wnt signaling pathway (Top-Flash reporter gene); assay: Top-Flash Wnt reporter gene assay in HEK293T cells with Wnt3a conditioned medium; conditions: Homo sapiens, HEK-293T, 6 h
Summary of the method: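 HEK293T transfected with TOP-flash (5 ng/well) plus GFP plasmid for normalization, then treated 6 h with mouse Wnt3a conditioned medium from L cells, with or without compound. GFP-normalized luciferase minus DMSO-only background, scaled to Wnt-induced activity; IC50 at 0.5 relative residual activity from 4-parameter logistic fit.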

[2] = tested on: SW-480 (human colon cancer cells); assay: MTT inhibition of tumor cell growth, SW-480; conditions: Homo sapiens
Summary of the method: (§1)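 Compound exposure lasts 48 h at 37° C on cells plated at 5000-10000 per well in serum-containing medium. Viability is read by MTT reduction at 595 nm, and IC50 is computed with the two-point Reed and Muench method.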

[3] = tested on: HL-60 (human promyelocytic leukemia cells); assay: MTT inhibition of tumor cell growth, HL-60; conditions: Homo sapiens
Summary of the method: as §1

[4] = tested on: MCF-7 (human breast cancer cells); assay: MTT inhibition of tumor cell growth, MCF-7; conditions: Homo sapiens
Summary of the method: as §1

[5] = tested on: A-549 (Human lung adenocarcinoma cells); assay: MTT inhibition of tumor cell growth, A-549; conditions: Homo sapiens
Summary of the method: as §1

[6] = tested on: SMMC-7721 (human hepatoma cells); assay: MTT inhibition of tumor cell growth, SMMC-7721; conditions: Homo sapiens
Summary of the method: as §1

[7] = read-out: IC50 (μM), inhibitory activity on the Wnt signaling pathway
[8] = SW480, Table 7 (first), alkaloid derivatives, 48 h, read-out: IC50 SW-480
[9] = HL-60, Table 7 (first), alkaloid derivatives, 48 h
[10] = MCF7, Table 7 (first), alkaloid derivatives, 48 h
[11] = A549, Table 7 (first), alkaloid derivatives, 48 h
[12] = SMMC-7721, Table 7 (first), alkaloid derivatives, 48 h
[13] = Table 7 (second), derivatives modified on 7-hydroxyl of S-3, HEK293T, Wnt3a conditioned medium, read-out: IC50 (μM), inhibitory activity on the Wnt signaling pathway
[14] = SW480, 48 h, Table 1, 7-hydroxy derivatives of S-3, read-out: IC50 SW-480
[15] = HL-60, 48 h, Table 1, 7-hydroxy derivatives of S-3
[16] = MCF7, 48 h, Table 1, 7-hydroxy derivatives of S-3
[17] = A549, 48 h, Table 1, 7-hydroxy derivatives of S-3
[18] = SMMC-7721, 48 h, Table 1, 7-hydroxy derivatives of S-3
[19] = Table 8, HEK293T, Wnt3a conditioned medium, read-out: IC50 (μM), inhibitory activity on the Wnt signaling pathway
[20] = SW480, 48 h, Table 3, single Michael reaction acceptor, modified lactonic ring, read-out: IC50 SW-480
[21] = HL-60, 48 h, Table 3, single Michael reaction acceptor, modified lactonic ring
[22] = MCF7, 48 h, Table 3, single Michael reaction acceptor, modified lactonic ring
[23] = A549, 48 h, Table 3, single Michael reaction acceptor, modified lactonic ring
[24] = SMMC-7721, 48 h, Table 3, single Michael reaction acceptor, modified lactonic ring
[25] = Table 10, HEK293T, Wnt3a conditioned medium, read-out: IC50 (μM), inhibitory activity on the Wnt signaling pathway
[26] = SW480, 48 h, Table 2, derivatives having potential Michael reaction acceptor, read-out: IC50 SW-480
[27] = HL-60, 48 h, Table 2, derivatives having potential Michael reaction acceptor
[28] = MCF7, 48 h, Table 2, derivatives having potential Michael reaction acceptor
[29] = A549, 48 h, Table 2, derivatives having potential Michael reaction acceptor
[30] = SMMC-7721, 48 h, Table 2, derivatives having potential Michael reaction acceptor
[31] = Table 9, HEK293T, Wnt3a conditioned medium, read-out: IC50(μM), inhibitory activity on the Wnt signaling pathway
[32] = SW480, 48 h, Table 5, derivatives having double Michael reaction acceptor, read-out: IC50 SW-480
[33] = SW480, 48 h, Table 6, double Michael reaction acceptor derivatives, read-out: IC50 SW-480, derivatives having double Michael reaction acceptor
[34] = HL-60, 48 h, Table 5, derivatives having double Michael reaction acceptor
[35] = MCF7, 48 h, Table 5, derivatives having double Michael reaction acceptor
[36] = A549, 48 h, Table 5, derivatives having double Michael reaction acceptor
[37] = SMMC-7721, 48 h, Table 5, derivatives having double Michael reaction acceptor

C=C1C(=O)[C@]23CC[C@H]1CC2[C@@]12CCC[C@@](C)(CN(CCO)C1)C2C[C@H]3O (stereo partly drawn) [Compound 88]
IC50 [1, 7]: > 60 µM
IC50 [2, 8]: 14.4 µM
IC50 [3, 9]: 7.95 µM
IC50 [4, 10]: 16.6 µM
IC50 [5, 11]: 9.92 µM
IC50 [6, 12]: 11.2 µM

C=C1C(=O)[C@]23CC[C@H]1CC2[C@@]12CCC[C@@](C)(COC1=O)C2C[C@H]3OC(=O)CBr (stereo partly drawn) [Compound 1d]
IC50 [1, 13]: 28.8 ± 0.56 µM
IC50 [2, 14]: 3 µM
IC50 [3, 15]: 1.05 µM
IC50 [4, 16]: 3.47 µM
IC50 [5, 17]: 0.5 µM
IC50 [6, 18]: 1.23 µM

C=C1C(=O)[C@]23CC[C@H]1CC2[C@@]12CCC[C@@](C)(CN(CCO)C1)C2CC3=O (stereo partly drawn) [Compound 91]
IC50 [1, 7]: 49.4 ± 1.42 µM
IC50 [2, 8]: 11.8 µM
IC50 [3, 9]: 14.3 µM
IC50 [4, 10]: 15.7 µM
IC50 [5, 11]: 9.24 µM
IC50 [6, 12]: 15.2 µM

C=C1C(=O)C23CC[C@H]1CC2[C@@]12CCC[C@@](C)(COC1=O)C2C[C@H]3OC(=O)c1ccccc1 (stereo partly drawn) [Compound 1j]
IC50 [1, 13]: 14.7 ± 0.18 µM
IC50 [2, 14]: 3.95 µM
IC50 [3, 15]: 2.99 µM
IC50 [4, 16]: 3.71 µM
IC50 [5, 17]: 2.97 µM
IC50 [6, 18]: 0.74 µM

C=C1C(=O)C23CC[C@H]1CC2[C@@]12CCC[C@@](C)(COS(=O)OC1)C2C[C@H]3O (stereo partly drawn) [Compound 41]
IC50 [1, 19]: > 60 µM
IC50 [2, 20]: 2.09 µM
IC50 ([2]; SW480, 48 h, Table 6, 7-hydroxyl derivatives and controls, read-out: IC50 SW-480, 7-hydroxyl derivatives): 2.09 µM
IC50 [3, 21]: 1.58 µM
IC50 [4, 22]: 2.24 µM
IC50 [5, 23]: 2.18 µM
IC50 [6, 24]: 0.9 µM

C=C1C(=O)[C@]23CC[C@H]1CC2[C@@]12CCC[C@@](C)(COC1)C2[C@H](COS(C)(=O)=O)C3=O (stereo partly drawn) [Compound 32]
IC50 [1, 25]: 19.8 ± 1.04 µM
IC50 [2, 26]: 1.58 µM
IC50 [3, 27]: 3.45 µM
IC50 [4, 28]: 2.02 µM
IC50 [5, 29]: 2.22 µM
IC50 [6, 30]: 3.12 µM

C=C1C(=O)C23CC[C@@H](CC2[C@@]24CCC[C@@](C)(COS(=O)OC2)C14)C(=C)C3=O (stereo partly drawn) [Compound 43]
IC50 [1, 31]: 12.8 ± 0.13 µM
IC50 [2, 32]: 0.59 µM
IC50 [2, 33]: 0.34 µM
IC50 [3, 34]: 0.68 µM
IC50 [4, 35]: 0.78 µM
IC50 [5, 36]: 0.58 µM
IC50 [6, 37]: 0.16 µM

C=C1C(=O)[C@]23CC[C@H]1CC2[C@@]12CCC[C@@](C)(COC1=O)C2C[C@H]3OC(C)=O (stereo partly drawn) [Compound 1b]
IC50 [1, 13]: 14.2 ± 0.67 µM
IC50 [2, 14]: 3.44 µM
IC50 [3, 15]: 1.46 µM
IC50 [4, 16]: 3.48 µM
IC50 [5, 17]: 2.83 µM
IC50 [6, 18]: 3.6 µM

C=C1C(=O)[C@]23CC[C@H]1CC2[C@@]12CCC[C@@](C)(COC1=O)C2=CC3=O (stereo partly drawn) [Compound 15]
IC50 [1, 31]: 11.1 ± 0.63 µM
IC50 [2, 32]: 1.21 µM
IC50 [3, 34]: 0.8 µM
IC50 [4, 35]: 1.44 µM
IC50 [5, 36]: 0.91 µM
IC50 [6, 37]: 0.8 µM

C=C1C(=O)[C@]23CC[C@H]1CC2[C@@]12CCC[C@@](C)(COC1)C2CC3=O (stereo partly drawn) [Compound 28]
IC50 [1, 19]: 9.12 ± 0.21 µM
IC50 [2, 26]: 2.37 µM
IC50 [2, 20]: 2.37 µM
IC50 ([2]; SW480, 48 h, Table 6, 7-carbonyl derivatives, read-out: IC50 SW-480, 7-carbonyl derivatives): 2.06 µM
IC50 [3, 27]: 4.9 µM
IC50 [3, 21]: 4.9 µM
IC50 [4, 28]: 2.85 µM
IC50 [4, 22]: 2.85 µM
IC50 [5, 29]: 2.97 µM
IC50 [5, 23]: 2.97 µM
IC50 [6, 30]: 4.62 µM
IC50 [6, 24]: 4.62 µM

C=C1C(=O)C23CC[C@@H](CC2[C@]2(COS(C)(=O)=O)CCC[C@@](C)(COS(C)(=O)=O)C12)C(=C)C3=O (stereo partly drawn) [Compound 74a]
IC50 [1, 31]: 11.2 ± 1.54 µM
IC50 [2, 32]: 0.15 µM
IC50 [2, 33]: 0.65 µM
IC50 [3, 34]: 0.51 µM
IC50 [4, 35]: 0.53 µM
IC50 [5, 36]: 0.56 µM
IC50 [6, 37]: 0.26 µM

C=C1C(=O)C23CC[C@H]1CC2[C@@]12CCC[C@@](C)(COC1=O)C2C[C@H]3OC(=O)c1cccs1 (stereo partly drawn) [Compound 1o]
IC50 [1, 7]: 9.15 ± 1.14 µM
IC50 ([2]; SW480, Table 1, 7-hydroxy derivatives of S-3, 48 h, read-out: IC50 SW-480): 0.56 µM
IC50 ([3]; HL-60, Table 1, 7-hydroxy derivatives of S-3, 48 h): 0.84 µM
IC50 ([4]; MCF7, Table 1, 7-hydroxy derivatives of S-3, 48 h): 1.26 µM
IC50 ([5]; A549, Table 1, 7-hydroxy derivatives of S-3, 48 h): 0.49 µM
IC50 ([6]; SMMC-7721, Table 1, 7-hydroxy derivatives of S-3, 48 h): 0.6 µM

C=C1C(=O)[C@]23CC[C@H]1CC2[C@@]12CCC[C@@](C)(COC1=O)C2[C@H](Br)C3=O (stereo partly drawn) [Compound 13]
IC50 [1, 31]: 16.5 ± 1.16 µM
IC50 [2, 26]: 1.21 µM
IC50 [3, 27]: 3.86 µM
IC50 [4, 28]: 1.51 µM
IC50 [5, 29]: 0.73 µM
IC50 [6, 30]: 0.83 µM

C=C1C(=O)[C@]23CC[C@H]1CC2[C@@]12CCC[C@@](C)(COC1=O)C2C[C@H]3S(=O)(=O)c1ccccc1[N+](=O)[O-] (stereo partly drawn) [Compound 1u]
IC50 [1, 13]: > 60 µM
IC50 [2, 14]: 18.4 µM
IC50 [3, 15]: 6.63 µM
IC50 [4, 16]: 9.05 µM
IC50 [5, 17]: 6.69 µM
IC50 [6, 18]: 23.4 µM

C=C1C(=O)[C@@]23CC[C@@H](CC2[C@@]24CCC[C@@](C)(COC2=O)C14)C(=C)[C@@H]3O (stereo partly drawn) [Compound 16]
IC50 [1, 31]: 8.27 ± 1.24 µM
IC50 [2, 26]: 11.4 µM
IC50 [3, 27]: 5.56 µM
IC50 [4, 28]: 3.09 µM
IC50 [5, 29]: 4.77 µM
IC50 [6, 30]: 12 µM

C=C1C(=O)C23CC[C@H]1CC2[C@]1(COCC#N)CCC[C@@](C)(COC(=O)c2cccs2)C1CC3=O (stereo partly drawn) [Compound 55]
IC50 [1, 25]: 12.1 ± 1.25 µM
IC50 ([2]; SW480, 48 h, Table 4, derivatives obtained by reduction of the lactonic ring, read-out: IC50 SW-480): 0.8 µM
IC50 ([3]; HL-60, 48 h, Table 4, derivatives obtained by reduction of the lactonic ring): 0.62 µM
IC50 ([4]; MCF7, 48 h, Table 4, derivatives obtained by reduction of the lactonic ring): 0.65 µM
IC50 ([5]; A549, 48 h, Table 4, derivatives obtained by reduction of the lactonic ring): 1.17 µM
IC50 ([6]; SMMC-7721, 48 h, Table 4, derivatives obtained by reduction of the lactonic ring): 1.06 µM

C=C1C(=O)C23CC[C@H]1CC2[C@@]12CCC[C@@](C)(COC1=O)C2C[C@H]3OC(=O)CN=[N+]=[N-] (stereo partly drawn) [Compound 1e]
IC50 [1, 13]: 22.14 ± 0.1 µM
IC50 [2, 14]: 2.37 µM
IC50 [3, 15]: 4.44 µM
IC50 [4, 16]: 2.74 µM
IC50 [5, 17]: 2.96 µM
IC50 [6, 18]: 4.1 µM
